# Several values for one entry are separate records, joined by “and”; a condition that tells them apart may be missing. Equal values may be shown once. Read-outs that look alike come from different tables or passages of the source. Ends that are not written are not given here.
# Legend:
# [1] = tested on: Mycobacterium tuberculosis MDR (clinically isolated multidrug resistant strain); conditions: literature value ref Rastogi, et al., 1996 [55]; cited from earlier work
# [2] = tested on: Mycobacterium tuberculosis MDR (clinically isolated multidrug resistant strain); conditions: MDR (clinically isolated multidrug resistant strain, 24 h)
# [3] = not given; remark: listed apart in the source
compound,measurement,setting,value
CC[C@@H](CO)NCCN[C@@H](CC)CO [Ethambutol],MIC Mycobacterium tuberculosis MDR,[1],20 µg/mL and 97 µM
CO[C@H]1/C=C/O[C@@]2(C)Oc3c(C)c(O)c4c(O)c(c(/C=N/N5CCN(C)CC5)c(O)c4c3C2=O)NC(=O)/C(C)=C\C=C\[C@H](C)[C@H](O)[C@@H](C)[C@@H](O)[C@@H](C)[C@H](OC(C)=O)[C@@H]1C [Rifampicin],MIC Mycobacterium tuberculosis MDR,[1],32 µg/mL and 38.9 µM
FWGALAKGALKLIGPGSLFSSFSKKD [Pin2 [GPG]],maximum alpha-helical structure,,60%
FWGALAKGALKLIGSLFSSFSKKD [Pin2 [G]],MIC Mycobacterium tuberculosis MDR,[2],18.7 µM
same,maximum alpha-helical structure,,60%
same,alpha-helical structure in absence of TFE,[3],20%
"FWGALAKGALKLIPSLFSSFSKKD [Pin2, Pandinin 2, reference compound]",MIC Mycobacterium tuberculosis MDR,[2],33.1 µM
FWGLKGLKGPGKFSKKL [Pin2 [17]],MIC Mycobacterium tuberculosis MDR,[2],14.8 ± 5.2 µM
FWGLKGLKKFSKKL [Pin2 [14]],MIC Mycobacterium tuberculosis MDR,[2],6 ± 1.8 µM

# Source: paper PMC4096598 (PLoS ONE, 2014)
